Measurements from article PMC8703873, “Structure and Activity of a Selective Antibiofilm Peptide SK-24 Derived from the NMR Structure of Human Cathelicidin LL-37” (Pharmaceuticals, 2021).
≈ marks a conversion by molar mass, not a printed value. Where two headings read alike, the source gives them in different places. No end group written: not given here.

Columns and labels:
P. aeruginosa E411-17 = type: cell-based, Pseudomonas aeruginosa; conditions: for MIC: E411-17
Method: (§1) The antibiotic-resistant pathogens used in this study include the Gram-positive bacteria Enterococcus faecium V286-17 and Staphylococcus aureus USA300 LAC and the Gram-negative bacteria Klebsiella pneumoniae E406-17, Acinetobacter baumannii B28-16, Pseudomonas aeruginosa E411-17, and Escherichia coli E423-17. All bacteria were cultivated in tryptic soy broth (TSB) at 37 °C, 220 rpm.
(§2) The antibacterial activity of peptides was evaluated using a standard broth microdilution protocol with minor modifications. In brief, peptides were made at various concentrations, 10 μL per well in a 96-well polystyrene microplate. Logarithmic phase bacterial cultures (i.e., optical density (OD) at 600 nm ≈ 0.5) were diluted to 0.001 OD, and aliquots of 90 μL were added to each well. Untreated bacterial culture and medium were included as positive and negative controls, respectively. Plates were incubated at 37 °C overnight and read at 630 nm using a ChroMate Microplate Reader (Awareness Technology, Palm City, FL, USA). […] Our previously designed peptide 17BIPHE2 [32] was included as a positive control, and RI-10, a peptide without antibacterial activity in rich media, was utilized as a negative control.

Human red blood cells = test: Hemolytic assay; type: cell-based; conditions: 1 h
Method: Human red blood cells (hRBCs, the UNMC Blood Bank) were washed three to five times with saline (Fisher Scientific, Waltham, MA, USA) at 800 g for 10 min each time, until the supernatant was clear. The supernatant was discarded, and hRBCs were suspended in saline at a final density of 2%. Ninety microliters of hRBC suspensions were added to each well of 96-well plates containing 10 µL of 10× serially diluted peptides. After incubation at 37 °C for 1 h, the plates were centrifuged at 1500 rpm for 5 min. About 80 µL of the supernatant was carefully pipetted to a new 96-well microplate and read at 545 nm to measure the amount of hemoglobin released. The positive control was 1% Triton X-100, and the negative control was saline. The percentage of hRBC lysis was calculated based on the hemoglobin released.

S. aureus USA300 LAC [1] = test: Membrane permeabilization (propidium iodide); type: cell-based, Staphylococcus aureus; conditions: peptide 8 µM; propidium iodide fluorescence, 2 h, PBS, 37 °C
Method: (§3) Membrane permeabilization was evaluated as described. In brief, bacteria were inoculated and grown overnight. A second inoculation was made and let bacteria grow to the exponential phase. Bacteria were then spun, washed, and resuspended in the same volume of PBS. A series of peptide solutions (10×) was made via two-fold dilution in a 96-well plate (10 µL each). All wells were aliquoted with 2 µL of propidium iodide (20 µM), followed by adding 88 µL of S. aureus USA300 or A. baumannii B28-16 (OD600 ~0.11 in PBS). The plate was incubated at 37 °C with continuous shaking at 100 rpm in a FLUOstar Omega microplate reader (BMG Labtech Inc., Cary, NC, USA). Fluorescence was recorded every 5 min for 2 h with excitation and emission wavelengths of 485 and 620 nm. The data were analyzed by the vendor’s software using averaged values from duplicated experiments.

[2] = HPLC retention time (measure of peptide hydrophobicity); type: physicochemical; conditions: chromatographic, Waters C8 symmetry hydrophobic column, as described in ref 34; used as indicator of peptide hydrophobicity
Description: In the membrane-bound LL-37 structure determined by 3D NMR spectroscopy, a hydrophobic gap exists (Figure 1A). The location of a hydrophilic S9 on the hydrophobic surface of LL-37 splits the long helix into two hydrophobic domains (gold sticks). The SK-24 peptide we identified here corresponds to the long hydrophobic domain [26]. The amino acid sequence of SK-24, along with LL-37 and its derived antimicrobial peptides, is depicted in Figure 1B. Peptide parameters, including net charge, hydrophobic content, Boman index, GRAVY, hydrophobicity, and hydrophobic moment of each peptide, were calculated using online tools, such as the APD [8] and HeliQuest (Table 1). Except for the shortest RI-10 (net charge +3), LL-37 and its other derived peptides have net charges +5 or +6, above the average net charge (+3.3) of natural antimicrobial peptides registered in the APD [8, 35, 36]. Overall, the hydrophobic percentages (Pho) of these peptides calculated in the APD are proportional to the hydrophobicity and hydrophobic moment calculated by HeliQuest in Table 1. Of note, LL-37 has the highest net charge (+6) and Boman index but the lowest Pho%, GRAVY, and hydrophobic moment.
All peptides were chemically synthesized and purified to >95% (Genemed Synthesis, San Antonio, TX, USA). The quality of each peptide was determined based on mass spectrometry (MS) and high-performance liquid chromatography (HPLC). Peptide stock solutions were freshly made by solubilizing in autoclaved distilled water, and their concentrations were quantitated using UV spectroscopy based on the absorbance difference at 215 and 225 nm as described. Peptide retention time was measured on a Waters C8 symmetry hydrophobic column as described. Other chemicals were purchased from Sigma (St. Louis, MO, USA) unless specified.

S. aureus USA300 LAC [3] = test: Membrane depolarization (DiBAC4(3)); type: cell-based, Staphylococcus aureus; conditions: DiBAC4(3) fluorescence; for Membrane depolarization ability (order, words): peptide 8 µM, similar trends at 16 and 32 µM
Method: The experiment was conducted as described. In brief, an overnight culture of S. aureus USA300 LAC was subcultured in a fresh TSB medium and grown to the exponential phase. Cells were spun using centrifugation and washed twice with PBS, and resuspended in twice the volume of PBS containing 25 mM glucose and incubated at 37 °C for 15 min. For membrane depolarization measurements, 500 nM (final concentration) of the dye DiBAC4 (3) (bis-(1,3- dibutylbarbituric acid) trimethine oxonol) (AnaSpec, San Jose, CA, USA) was added and vortexed gently. Aliquots of 90 μL of the energized bacteria solution were loaded to the wells, and the plate was fed into a FLUOstar Omega microplate reader. Fluorescence was read for 20 min at excitation and emission wavelengths of 485 and 520 nm, respectively, to get dye normalization. Then 10 μL of diluted peptide solutions were added and gently mixed. Fluorescence readings were recorded for 40 min, where Triton X-100 (0.1%) was used as a positive control.

[4] = test system: S. aureus USA300 LAC preformed biofilms; test: Disruption of preformed biofilms (XTT); type: cell-based, Staphylococcus aureus; conditions: for Antibiofilm effect on 24 h preformed biofilms: 24 h preformed biofilms of S. aureus USA300, XTT
Method: (§4) The antibiofilm activities of peptides against the preformed biofilms of A. baumannii B28-16 and S. aureus USA300 LAC were evaluated as follows. Bacteria in the logarithmic growth phase were adjusted to a cell density of 10^5 colony forming unit (CFU)/mL. Two hundred microliter cells were seeded into each well of the 96-well plates. The plates were incubated at 37 °C to allow for the formation of biofilm for 24, 48, and 72 h, respectively. The planktonic cells were then removed, followed by a wash. The biofilms were then treated with 20 µL of 10× two-fold diluted peptides and 180 µL of fresh TSB media for 24 h at 37 °C. Cultures treated with water without peptide served as the positive control, and media treated with water was used as the negative control. To quantify the antibiofilm activity of the peptides, the XTT [2, 3-bis (2-methyloxy-4-nitro-5-sulfophenyl)-2H-tertazolium-5-carboxanilide] assay staining method was used to quantitate the live cells. Absorbance was read at 450 nm using a ChroMate microliter plate reader. The percentage biofilm growth for the peptide was plotted by assuming 100% biofilm growth in untreated bacterial control wells. Data were represented as mean ± standard deviation (SD). The data are statistically significant at p < 0.05. Plots were generated using GraphPad Prism v7 (GraphPad Software, San Diego, CA, USA).

E. coli E423-17 = type: cell-based, Escherichia coli
Method: as §1, §2

[5] = test system: A. baumannii B28-16 preformed biofilms; test: Disruption of preformed biofilms (XTT); type: cell-based, Acinetobacter baumannii; conditions: for Biofilm disruption: 72 h preformed biofilms, peptide 64 μM, highest concentration tested; for Disruption of 48 h biofilms: biofilms established for 48 h; for Disruption of 48 h biofilms / Reduction of 24 h biofilms: 24 h treatment; for Reduction of 24 h biofilms: biofilms established in 24 h
Method: as §4

K. pneumoniae E406-17 = type: cell-based, Klebsiella pneumoniae; conditions: for MIC: E406-17
Method: as §1, §2

S. aureus USA300 = type: cell-based, Staphylococcus aureus
Method: as §1, §2

A. baumannii B28-16 [6] = type: cell-based, Acinetobacter baumannii
Method: as §1, §2

A. baumannii B28-16 [7] = test: Membrane permeabilization (propidium iodide); type: cell-based, Acinetobacter baumannii; conditions: peptide 16 µM; propidium iodide fluorescence, 2 h, PBS, 37 °C
Method: as §3

E. faecium V284-17 = type: cell-based, Enterococcus faecium
[8] = test system: S. aureus USA300 LAC preformed biofilms; conditions: S. aureus USA300 LAC and other clinical strains (USA200, USA400, Mu50); cited from earlier work
Method: Here, we compared the antibiofilm activity of SK-24 with that of GF-17, GI-20, and 17BIPHE2 against the 24 h preformed biofilms of S. aureus USA300. […] Only SK-24 a ...

[9] = 2% hRBCs in saline, 37 °C, tested 12.5–200 µM

SKEKIGKEFKRIVQRIKDFLRNLV-NH2 [SK-24]
MIC (P. aeruginosa E411-17): >32 µM
Effect on growth at 32 μM (P. aeruginosa E411-17; P. aeruginosa E411-17, peptide 32 μM): poor effect
HC50 (50% hemolytic concentration) (Human red blood cells; red cells of human): greater than 200 µM
Membrane permeation (S. aureus USA300 LAC [1]): weakly permeated
tHPLC (HPLC retention time) [2]: 12.291 min
Membrane depolarization ability (order, words) (S. aureus USA300 LAC [3]): GI-20 > 17BIPHE2 > GF-17~SK-24 > LL-37
Membrane depolarization, dose dependence (S. aureus USA300 LAC [3]; peptide 4, 8, 16 and 32 µM): dose-dependent manner
Antibiofilm effect on 24 h preformed biofilms [4]: antibiofilm effect in a dose-dependent manner
Staphylococcal biofilm remaining (reduced to) ([4]; 24 h preformed biofilms, peptide 32 μM, relative to untreated control = 100%): ~ 25%
MIC (E. coli E423-17): 16 µM
Biofilm disruption [5]: ~ 70%
Disruption of 48 h biofilms [5]: dose-dependent biofilm disruption
Reduction of 24 h biofilms [5]: dose-dependent manner
MIC (K. pneumoniae E406-17): ≥32 µM
Effect on growth at 32 μM (K. pneumoniae E406-17; K. pneumoniae E406-17, peptide 32 μM): poor effect

GIKEFKRIVQRIKDFLRNLV-NH2 [GI-20]
MIC (P. aeruginosa E411-17): >32 µM
HC50 (50% hemolytic concentration) (Human red blood cells; red cells of human): ~ 160 µM
MIC (S. aureus USA300): 2 to 4 µM
Membrane permeation (S. aureus USA300 LAC [1]): more powerful
MIC (A. baumannii B28-16 [6]): 8 µM
tHPLC (HPLC retention time) [2]: 12.681 min
Membrane depolarization ability (order, words) (S. aureus USA300 LAC [3]): GI-20 > 17BIPHE2 > GF-17~SK-24 > LL-37
Antibiofilm effect on 24 h preformed biofilms [4]: antibiofilm effect in a dose-dependent manner
Membrane permeation (A. baumannii B28-16 [7]): superior to SK-24
MIC (E. coli E423-17): 32 µM
Biofilm disruption [5]: 30–50%
Disruption of 48 h biofilms [5]: only worked at 64 μM
Reduction of 24 h biofilms [5]: dose-dependent manner
MIC (E. faecium V284-17; V284-17): 2 µM
MIC (K. pneumoniae E406-17): >32 µM

CC[C@H](C)[C@H](NC(=O)[C@H](CCCCN)NC(=O)[C@H](CCC(=O)O)NC(=O)[C@H](CCCCN)NC(=O)[C@H](CO)NC(=O)[C@H](CCCCN)NC(=O)[C@H](CCCNC(=N)N)NC(=O)[C@H](Cc1ccccc1)NC(=O)[C@H](Cc1ccccc1)NC(=O)[C@H](CC(=O)O)NC(=O)CNC(=O)[C@H](CC(C)C)NC(=O)[C@@H](N)CC(C)C)C(=O)NCC(=O)N[C@@H](CCCCN)C(=O)N[C@@H](CCC(=O)O)C(=O)N[C@@H](Cc1ccccc1)C(=O)N[C@@H](CCCCN)C(=O)N[C@@H](CCCNC(=N)N)C(=O)N[C@H](C(=O)N[C@H](C(=O)N[C@@H](CCC(N)=O)C(=O)N[C@@H](CCCNC(=N)N)C(=O)N[C@H](C(=O)N[C@@H](CCCCN)C(=O)N[C@@H](CC(=O)O)C(=O)N[C@@H](Cc1ccccc1)C(=O)N[C@@H](CC(C)C)C(=O)N[C@@H](CCCNC(=N)N)C(=O)N[C@@H](CC(N)=O)C(=O)N[C@@H](CC(C)C)C(=O)N[C@H](C(=O)N1CCC[C@H]1C(=O)N[C@@H](CCCNC(=N)N)C(=O)N[C@H](C(=O)N[C@@H](CCC(=O)O)C(=O)N[C@@H](CO)C(=O)O)[C@@H](C)O)C(C)C)[C@@H](C)CC)C(C)C)[C@@H](C)CC [LL-37]
HC50 (50% hemolytic concentration) (Human red blood cells; [9]): ~ 175 µM
Hemolytic activity (Human red blood cells; [9]): no hemolysis below 100 µM
Hemolysis (Human red blood cells; peptide 200 µM, 2% hRBCs in saline, 37 °C, read at 545 nm): 70%
tHPLC (HPLC retention time) [2]: 12.548 min
Membrane depolarization ability (order, words) (S. aureus USA300 LAC [3]): GI-20 > 17BIPHE2 > GF-17~SK-24 > LL-37
Disruption of preformed biofilms ([5]; biofilms formed for 24, 48 and 72 h, peptide at 8, 16, 32 or 64 μM for 24 h): unable to disrupt
MIC (E. faecium V284-17; E. faecium V284-17, 100% TSB, 37 °C overnight, read at 630 nm): 32 µM (≈ 144 µg/mL)
Disruption of 24 h preformed biofilms (words, found previously) [8]: neither LL-37 nor RI-10 was able to disrupt

GFKRIVQRIKDFLRNLV-NH2 (C-terminus assumed) [GF-17]
MIC (P. aeruginosa E411-17): 16 µM
HC50 (50% hemolytic concentration) (Human red blood cells; red cells of human): ~ 175 µM
MIC (S. aureus USA300): 2 to 4 µM
MIC (A. baumannii B28-16 [6]): 4 µM
tHPLC (HPLC retention time) [2]: 12.197 min
Membrane depolarization ability (order, words) (S. aureus USA300 LAC [3]): GI-20 > 17BIPHE2 > GF-17~SK-24 > LL-37
Antibiofilm effect on 24 h preformed biofilms [4]: antibiofilm effect in a dose-dependent manner
MIC (E. coli E423-17): 16 µM
Biofilm disruption [5]: 30–50%
Disruption of 48 h biofilms [5]: dose-dependent biofilm disruption
Reduction of 24 h biofilms [5]: dose-dependent manner
MIC (E. faecium V284-17; V284-17): 2 µM
MIC (K. pneumoniae E406-17): >32 µM
Disruption of 24 h preformed biofilms (words, found previously) [8]: highly effective
